The values below come from PubChem BioAssay (NCI).

“And” between values parts separate entries of the source, which are not always exact repeats. Identical values can stand only once.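 Exposure lasted 48 hours, with cells grown in 96-well plates and compounds tested at five concentrations. TGI: concentration producing complete growth inhibition.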 Where only a bound is given, the exact number is not on record here.

Among the test systems are RXF 393 renal; HCT-15 colon; SNB-19 CNS; 786-0 renal; MCF7 breast; M14 melanoma.
Holding throughout (assay): NCI-60 cell line screen, 48 h

On to `CCN(CC)CCOC(=O)CCN1CC2CCC(CC2)C1`, for which the TGI in the experiment with RXF 393 renal, in the experiment with HCT-15 colon, in the experiment with SNB-19 CNS, in the experiment with 786-0 renal, in the experiment on MCF7 breast and in the experiment on M14 melanoma was more than 100 µM each time.
On to `CC(C)[Si](OC1=C(C(=O)N(C)c2ccccc2Cl)CCCC1)(C(C)C)C(C)C`, for which the TGI in the experiment with RXF 393 renal is 30.1 µM; in the experiment on HCT-15 colon, 31.2 µM; in the experiment with SNB-19 CNS it was 25.6 µM; with 786-0 renal, 34.6 µM; in the experiment with MCF7 breast, 27.2 µM; in the experiment on M14 melanoma, 30.2 µM.
In the case of `NC1CC(=O)c2csc(Cl)c21` (stereo unspecified), the TGI in the experiment on RXF 393 renal was 17.8 µM; in the experiment on HCT-15 colon, 14.2 µM; in the experiment on SNB-19 CNS, 33.2 µM; with 786-0 renal, 2.96 µM; in the experiment on MCF7 breast it was more than 100 µM; in the experiment on M14 melanoma it was 23.7 µM.
Turning to `COc1ccccc1N1C(=O)CS(=O)(=O)C1c1cccc(Oc2ccccc2)c1` (stereo unspecified), the TGI in the experiment with RXF 393 renal came to 38.8 µM; in the experiment on HCT-15 colon, 36.2 µM; in the experiment on SNB-19 CNS, 38.7 µM; with 786-0 renal, 34.9 µM; in the experiment with MCF7 breast it was 20.4 µM; with M14 melanoma it was 33.3 µM.
Consider `NCCCCN(CCCN)Cc1ccccc1`, for which the TGI in the experiment with RXF 393 renal, in the experiment on HCT-15 colon, in the experiment with SNB-19 CNS, with 786-0 renal, in the experiment with MCF7 breast and with M14 melanoma was more than 100 µM in each case.
With `COc1ccc2c(c1)CCCN1Cc3cc(OC)c(OC)cc3CC21` (stereo unspecified), the TGI was more than 100 µM in the experiment on RXF 393 renal; more than 100 µM with HCT-15 colon; more than 100 µM with SNB-19 CNS; more than 100 µM in the experiment on 786-0 renal; more than 100 µM in the experiment on MCF7 breast; 44.1 µM in the experiment on M14 melanoma.
`CC1(c2nc3ccccc3[nH]2)CCC(C(N)=O)C(C)(C)O1` (stereo unspecified): the TGI in the experiment with RXF 393 renal, in the experiment with HCT-15 colon, with SNB-19 CNS, in the experiment with 786-0 renal, in the experiment with MCF7 breast and with M14 melanoma was more than 100 µM in each case.
As to `COc1ccc(OC)c(C#Cc2ccc(OC)c(C(=O)NCCc3ccc(F)cc3)c2)c1`, the TGI with HCT-15 colon, in the experiment on SNB-19 CNS, with 786-0 renal, with MCF7 breast and in the experiment on M14 melanoma was more than 100 µM throughout.
In the case of `O=C1c2cscc2C(=O)C1(O)O`, the TGI is more than 100 µM in the experiment on HCT-15 colon; more than 100 µM in the experiment on SNB-19 CNS; more than 100 µM with 786-0 renal; more than 100 µM in the experiment with MCF7 breast; 45.5 µM in the experiment on M14 melanoma.
As for `CCN1C(=O)c2ccccc2C1(O)c1ccc(Cl)cc1` (stereo unspecified), the TGI in the experiment on HCT-15 colon, in the experiment on SNB-19 CNS, in the experiment with 786-0 renal, in the experiment on MCF7 breast and in the experiment with M14 melanoma was more than 100 µM throughout.
With `COc1ccc(C2CC(c3ccc4ccccc4c3O)=NN2C(C)=O)cc1OC` (stereo unspecified), the TGI in the experiment on RXF 393 renal, with HCT-15 colon, with 786-0 renal, in the experiment on MCF7 breast and in the experiment on M14 melanoma was more than 100 µM in each case.
Take `O=C(Cc1ccccc1)NNc1nc(NNC(=O)c2ccncc2)nc(Nc2ccccc2)n1`: the TGI in the experiment with HCT-15 colon, in the experiment with 786-0 renal, with MCF7 breast and in the experiment on M14 melanoma was more than 10 µM throughout.
Take `COCOCC1CCCN1CN1CCC[C@H]1COCOC` (stereo partly specified): the TGI in the experiment on HCT-15 colon, in the experiment on SNB-19 CNS, with 786-0 renal, in the experiment with MCF7 breast and in the experiment with M14 melanoma was more than 100 µM throughout.
Regarding `Cc1ccc(CC2(OCCN(C)C)CCC(C(C)(C)C)CC2)cc1` (stereo unspecified), the TGI was 14.9 µM and 15.4 µM in the experiment with HCT-15 colon; 16.6 µM and 16.8 µM in the experiment on SNB-19 CNS; 4.45 µM and 3.7 µM in the experiment with 786-0 renal; 7.74 µM and 8.45 µM with MCF7 breast; 3.36 µM and 3.35 µM in the experiment with M14 melanoma.
With `O=C(Nc1sccc1S(=O)(=O)c1ccc(Cl)cc1)C(F)(F)F`, the TGI with HCT-15 colon, in the experiment on SNB-19 CNS, in the experiment on 786-0 renal, in the experiment with MCF7 breast and in the experiment with M14 melanoma was more than 100 µM in each case.
With `O=C1Oc2ccccc2C(=O)/C1=C/N1C(=O)N/C(=C\c2cccc(O)c2)C1=O`, the TGI in the experiment on HCT-15 colon, with SNB-19 CNS, in the experiment on 786-0 renal, with MCF7 breast and with M14 melanoma was more than 100 µM throughout.
Consider `COc1ccc2oc(=O)c3c(c2c1C)OC(C)(C)C=C3`, for which the TGI in the experiment on HCT-15 colon, in the experiment on SNB-19 CNS, in the experiment with 786-0 renal, in the experiment on MCF7 breast and in the experiment on M14 melanoma was more than 100 µM in each case.
As for `O=C1CSC(c2ccc(Cl)cc2)N1c1ccc(-c2ccc(-n3c(-c4ccccc4)nc4ccccc4c3=O)cc2)cc1` (stereo unspecified), the TGI in the experiment with HCT-15 colon, with SNB-19 CNS, with 786-0 renal, with MCF7 breast and in the experiment on M14 melanoma was more than 100 µM in each case.
Consider `COc1ccc2oc(=O)c(CC=C(C)C)c(O)c2c1C`, for which the TGI in the experiment on HCT-15 colon, in the experiment with SNB-19 CNS, in the experiment with 786-0 renal, in the experiment with MCF7 breast and with M14 melanoma was more than 100 µM throughout.
In the case of `O=c1cc(-c2ccccc2)oc2ccc(-c3ccc4oc(-c5ccccc5)cc(=O)c4c3)cc12`, the TGI was found to be 30 µM in the experiment on HCT-15 colon; 50 µM with SNB-19 CNS; 72.5 µM in the experiment with 786-0 renal; 42.1 µM with MCF7 breast; 30.2 µM in the experiment with M14 melanoma.
Regarding `O=C1/C(=C/c2ccccc2)N=C(c2ccccc2)N1C1Nc2cc3c(cc2S1)NC(N1C(=O)/C(=C/c2ccccc2)N=C1c1ccccc1)S3` (stereo unspecified), the TGI in the experiment with RXF 393 renal was 54.3 µM; in the experiment with HCT-15 colon, 82.9 µM; with 786-0 renal it was more than 100 µM; with MCF7 breast, more than 100 µM; in the experiment on M14 melanoma, more than 100 µM.
